Paper PMC6003104, “Discovery of a Short‐Chain Dehydrogenase from Catharanthus roseus that Produces a New Monoterpene Indole Alkaloid” (Chembiochem, 2018)

Target: T1, vitrosamine synthase (VAS, Cro013448) (Catharanthus roseus, UniProt A0A0C5DR25)
T1 construct: N-terminal His6 tag (pOPINF) kept; E. coli SoluBL21; calculated 34469 Da; monomer in solution, dimer in crystal; modelled residues 7-299
Experiment: X-ray crystal structure, […] Å
Type: binding
Conditions: co-purified from E. coli as holoenzyme; crystals pH 4.0, 20 °C; active site, next to Ser167/Tyr223/Lys227

T1 sequence (A0A0C5DR25 entry or part of it): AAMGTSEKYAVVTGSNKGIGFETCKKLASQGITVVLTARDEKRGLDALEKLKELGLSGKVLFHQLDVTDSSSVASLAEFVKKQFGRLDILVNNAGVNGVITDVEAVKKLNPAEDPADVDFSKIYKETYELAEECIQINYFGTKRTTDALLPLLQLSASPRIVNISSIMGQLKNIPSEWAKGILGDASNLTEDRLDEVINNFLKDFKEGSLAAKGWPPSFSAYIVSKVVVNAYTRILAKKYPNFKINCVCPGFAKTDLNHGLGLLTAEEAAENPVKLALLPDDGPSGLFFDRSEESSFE

NC(=O)c1ccc[n+]([C@@H]2O[C@H](COP(=O)(O)OP(=O)(O)OC[C@H]3O[C@@H](n4cnc5c(N)ncnc54)[C@H](OP(=O)(O)O)[C@@H]3O)[C@@H](O)[C@H]2O)c1 [NADP+]
X-ray crystal structure, 1.55 Å: the apo enzyme active site also had a high occupancy of NADP^+
